pIC50, pKd: −log10 of the molar value. Like-named read-outs stand apart in the source and are kept apart here.
How the values were obtained:
[1] = system: Akt phosphorylated at Thr308 in PC-3 cells; assay: Cellular assay: phosphorylation of Akt at Thr308 in PC-3 cells (MSD ELISA); assay type: cell-based; conditions: PC-3 cells, 60 min compound incubation, MSD ELISA, read-out: IC50 pAkt_Thr308
Summary of the method: (§1)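 After lysis of treated cells (60 min, 37° C, 0.3% DMSO), phospho-Akt levels were measured by MSD electrochemiluminescence ELISA. Potency was derived from concentration-response curves fitted over five concentrations.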

PI3Kδ = target: T1, PI3Kδ (Homo sapiens, UniProt O00329); assay: Enzyme binding assay (KINOMEscan, DiscoveRx); conditions: PIK3Cδ_h
T1 construct: purchased DiscoveRx Corporation, San Diego (contract service, KINOMEscan)
T1 sequence (O00329 1-1044): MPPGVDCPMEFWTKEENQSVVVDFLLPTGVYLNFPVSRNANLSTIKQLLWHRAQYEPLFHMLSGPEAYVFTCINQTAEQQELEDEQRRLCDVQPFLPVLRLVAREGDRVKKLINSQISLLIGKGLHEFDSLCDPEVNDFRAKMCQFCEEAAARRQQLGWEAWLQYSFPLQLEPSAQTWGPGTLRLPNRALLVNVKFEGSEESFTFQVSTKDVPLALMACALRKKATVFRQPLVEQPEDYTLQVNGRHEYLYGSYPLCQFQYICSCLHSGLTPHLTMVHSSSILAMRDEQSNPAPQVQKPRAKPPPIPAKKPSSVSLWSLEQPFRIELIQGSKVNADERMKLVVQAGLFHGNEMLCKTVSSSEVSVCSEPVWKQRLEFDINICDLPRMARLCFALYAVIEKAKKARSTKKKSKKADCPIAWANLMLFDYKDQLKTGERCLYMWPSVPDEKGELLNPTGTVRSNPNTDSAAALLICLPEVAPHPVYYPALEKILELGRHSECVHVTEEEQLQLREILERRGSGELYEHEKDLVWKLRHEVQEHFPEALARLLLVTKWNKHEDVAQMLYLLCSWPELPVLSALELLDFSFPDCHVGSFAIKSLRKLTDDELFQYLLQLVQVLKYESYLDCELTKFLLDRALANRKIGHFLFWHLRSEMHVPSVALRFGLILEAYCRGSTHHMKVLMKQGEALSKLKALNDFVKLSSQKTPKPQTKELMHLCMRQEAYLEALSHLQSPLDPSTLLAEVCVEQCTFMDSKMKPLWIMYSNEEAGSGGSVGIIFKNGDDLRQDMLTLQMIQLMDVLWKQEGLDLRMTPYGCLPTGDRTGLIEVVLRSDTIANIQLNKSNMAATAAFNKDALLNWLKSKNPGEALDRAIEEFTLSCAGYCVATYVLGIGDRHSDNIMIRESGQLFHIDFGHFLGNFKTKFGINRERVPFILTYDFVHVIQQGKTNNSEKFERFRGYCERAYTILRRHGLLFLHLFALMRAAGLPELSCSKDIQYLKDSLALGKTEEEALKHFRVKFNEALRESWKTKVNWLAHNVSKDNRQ
Summary of the method: (§2)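 Compounds were profiled by KINOMEscan to obtain kinase binding affinities.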

kinase enzymes [2] = target: T2, kinase enzymes (Homo sapiens, UniProt P42336); assay: Enzyme binding assay (KINOMEscan, DiscoveRx), further kinases of Table A; conditions: PIK3Cα_h
T2 construct: purchased DiscoveRx Corporation, San Diego (contract service, KINOMEscan)
T2 sequence (P42336 whole entry): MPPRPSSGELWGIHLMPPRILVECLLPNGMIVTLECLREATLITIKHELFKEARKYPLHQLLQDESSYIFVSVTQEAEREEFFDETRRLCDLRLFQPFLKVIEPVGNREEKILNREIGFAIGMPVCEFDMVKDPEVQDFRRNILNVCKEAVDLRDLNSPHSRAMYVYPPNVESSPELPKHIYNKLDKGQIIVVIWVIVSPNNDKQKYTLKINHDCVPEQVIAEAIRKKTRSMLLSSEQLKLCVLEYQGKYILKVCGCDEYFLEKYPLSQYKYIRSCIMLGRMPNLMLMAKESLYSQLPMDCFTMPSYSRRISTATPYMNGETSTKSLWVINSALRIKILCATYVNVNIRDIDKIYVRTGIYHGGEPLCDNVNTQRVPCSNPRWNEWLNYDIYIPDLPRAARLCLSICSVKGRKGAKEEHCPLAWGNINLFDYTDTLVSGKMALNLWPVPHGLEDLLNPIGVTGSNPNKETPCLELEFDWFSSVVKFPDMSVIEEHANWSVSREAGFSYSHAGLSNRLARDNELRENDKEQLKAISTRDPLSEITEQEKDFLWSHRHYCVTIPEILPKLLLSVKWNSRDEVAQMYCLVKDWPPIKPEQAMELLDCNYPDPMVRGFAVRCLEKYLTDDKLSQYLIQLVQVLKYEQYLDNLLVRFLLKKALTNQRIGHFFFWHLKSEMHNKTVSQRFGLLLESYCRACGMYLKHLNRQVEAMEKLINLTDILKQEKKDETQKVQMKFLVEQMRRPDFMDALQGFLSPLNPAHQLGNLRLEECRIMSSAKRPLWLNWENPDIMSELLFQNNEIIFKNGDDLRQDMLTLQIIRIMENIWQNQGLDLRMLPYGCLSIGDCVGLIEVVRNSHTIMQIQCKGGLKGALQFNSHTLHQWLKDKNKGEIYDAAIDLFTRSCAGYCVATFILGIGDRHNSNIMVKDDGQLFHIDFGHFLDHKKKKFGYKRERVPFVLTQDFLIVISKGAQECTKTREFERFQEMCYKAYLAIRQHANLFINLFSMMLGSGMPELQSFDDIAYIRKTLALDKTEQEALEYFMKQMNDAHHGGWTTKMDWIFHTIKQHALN
Summary of the method: as §2

kinase enzymes [3] = target: T3, kinase enzymes (Homo sapiens, UniProt P48736); assay: as above; conditions: PIK3Cγ_h
T3 construct: purchased DiscoveRx Corporation, San Diego (contract service, KINOMEscan)
T3 sequence (P48736 whole entry): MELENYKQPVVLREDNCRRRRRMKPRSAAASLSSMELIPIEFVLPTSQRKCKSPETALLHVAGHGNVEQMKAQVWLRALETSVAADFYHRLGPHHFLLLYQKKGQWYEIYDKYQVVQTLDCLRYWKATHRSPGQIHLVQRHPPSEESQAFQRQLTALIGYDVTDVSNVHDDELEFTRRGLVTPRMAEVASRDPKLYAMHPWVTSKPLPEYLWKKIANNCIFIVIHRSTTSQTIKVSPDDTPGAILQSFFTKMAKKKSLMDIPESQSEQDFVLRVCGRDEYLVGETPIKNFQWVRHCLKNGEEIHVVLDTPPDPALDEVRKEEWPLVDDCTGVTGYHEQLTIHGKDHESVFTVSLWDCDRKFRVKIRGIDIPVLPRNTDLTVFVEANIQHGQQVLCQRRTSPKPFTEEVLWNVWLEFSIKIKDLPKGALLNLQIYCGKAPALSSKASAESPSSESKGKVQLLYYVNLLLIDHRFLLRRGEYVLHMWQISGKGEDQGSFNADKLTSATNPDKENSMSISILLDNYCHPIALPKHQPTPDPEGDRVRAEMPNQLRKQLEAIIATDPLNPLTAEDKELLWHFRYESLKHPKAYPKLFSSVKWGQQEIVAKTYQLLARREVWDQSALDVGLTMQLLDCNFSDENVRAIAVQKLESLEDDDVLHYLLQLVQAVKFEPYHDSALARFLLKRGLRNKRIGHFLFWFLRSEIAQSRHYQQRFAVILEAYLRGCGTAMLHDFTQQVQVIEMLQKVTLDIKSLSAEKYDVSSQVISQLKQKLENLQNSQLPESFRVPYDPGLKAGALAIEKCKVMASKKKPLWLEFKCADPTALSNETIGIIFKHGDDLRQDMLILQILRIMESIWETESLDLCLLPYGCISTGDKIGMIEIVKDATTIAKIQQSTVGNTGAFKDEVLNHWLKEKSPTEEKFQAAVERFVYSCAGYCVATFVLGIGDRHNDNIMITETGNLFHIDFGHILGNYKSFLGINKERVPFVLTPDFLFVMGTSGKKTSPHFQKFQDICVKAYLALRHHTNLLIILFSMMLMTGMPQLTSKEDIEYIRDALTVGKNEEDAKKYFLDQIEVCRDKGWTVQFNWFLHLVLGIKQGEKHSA
Summary of the method: as §2

kinase enzymes [4] = target: T4, kinase enzymes (Homo sapiens, UniProt P42345); assay: as above; conditions: MTOR_h
T4 construct: purchased DiscoveRx Corporation, San Diego (contract service, KINOMEscan)
Summary of the method: as §2

PI3Kβ = target: T5, PI3Kβ (Homo sapiens, UniProt P42338); assay: Enzyme binding assay (KINOMEscan, DiscoveRx); conditions: PIK3Cβ_h, read-out: Kd PIK3Cβ_h
T5 construct: purchased DiscoveRx Corporation, San Diego (contract service, KINOMEscan)
T5 sequence (P42338 whole entry): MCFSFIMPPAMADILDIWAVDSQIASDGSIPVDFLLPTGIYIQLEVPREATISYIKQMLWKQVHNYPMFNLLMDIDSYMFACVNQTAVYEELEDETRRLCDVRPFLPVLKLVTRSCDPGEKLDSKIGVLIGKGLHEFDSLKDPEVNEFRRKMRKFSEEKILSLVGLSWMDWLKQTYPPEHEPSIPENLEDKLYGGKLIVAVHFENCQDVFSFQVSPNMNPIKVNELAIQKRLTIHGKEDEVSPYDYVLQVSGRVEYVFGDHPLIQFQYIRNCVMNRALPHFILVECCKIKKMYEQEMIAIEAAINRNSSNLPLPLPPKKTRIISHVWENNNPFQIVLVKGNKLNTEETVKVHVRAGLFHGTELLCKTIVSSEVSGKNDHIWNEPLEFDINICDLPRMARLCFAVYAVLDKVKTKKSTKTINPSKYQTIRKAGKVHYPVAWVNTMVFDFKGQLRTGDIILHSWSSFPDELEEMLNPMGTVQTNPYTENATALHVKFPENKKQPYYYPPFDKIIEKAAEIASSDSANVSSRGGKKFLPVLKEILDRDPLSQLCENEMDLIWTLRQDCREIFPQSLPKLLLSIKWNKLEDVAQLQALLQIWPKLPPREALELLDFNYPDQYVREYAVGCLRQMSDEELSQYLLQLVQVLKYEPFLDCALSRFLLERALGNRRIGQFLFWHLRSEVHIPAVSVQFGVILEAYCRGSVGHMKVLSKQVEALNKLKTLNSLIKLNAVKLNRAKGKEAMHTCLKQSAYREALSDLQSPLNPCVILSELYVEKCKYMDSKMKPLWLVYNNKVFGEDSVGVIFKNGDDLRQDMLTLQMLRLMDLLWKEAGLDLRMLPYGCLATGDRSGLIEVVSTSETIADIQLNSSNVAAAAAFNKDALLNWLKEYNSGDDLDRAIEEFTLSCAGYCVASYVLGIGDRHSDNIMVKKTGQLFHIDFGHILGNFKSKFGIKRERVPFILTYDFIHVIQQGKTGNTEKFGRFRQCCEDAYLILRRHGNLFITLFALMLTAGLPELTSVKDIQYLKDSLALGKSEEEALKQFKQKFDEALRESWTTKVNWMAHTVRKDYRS
Summary of the method: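 Compounds are profiled for binding to the kinase using KINOMEscan. The affinity is then reported as an inhibitor Kd in nanomolar units.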

[5] = system: Akt phosphorylated at Ser473 in PC-3 cells; assay: Cellular assay: phosphorylation of Akt at Ser473 in PC-3 cells (MSD ELISA); assay type: cell-based; conditions: PC-3 cells, 60 min compound incubation, MSD ELISA, read-out: IC50 pAkt_S473
Summary of the method: as §1

Row | melting point | pIC50 ([1]; Homo sapiens, PC-3, 1 h) | pKd (PI3Kδ) | pKd (kinase enzymes [2]) | pKd (kinase enzymes [3]) | pKd (kinase enzymes [4]) | pKd (PI3Kβ) | pIC50 ([5]; Homo sapiens, PC-3, 1 h) | pIC50 [1] | pIC50 [5] | Structure (SMILES)
1 | 218 °C | 6.85 | 6.12 | 5.15 | 4.74 | 4.92 | 7.92 | 6.84 |  |  | O=C(NCCO)c1cc(NCc2cccc(F)c2)c2nc(N3CCOCC3)cnc2c1 [Compound 230]
2 | 158 °C | 6.75 | 5.76 | 5.68 | 4.80 | 4.71 | 8.10 | 6.53 |  |  | CN(C)C(=O)c1cc(NCc2cc(F)cc(F)c2)c2nc(N3CCOCC3)cnc2c1 [Compound 278]
3 | 77 °C | 6.94 | 6.43 | 5.27 | 5.19 | 4.72 | 8.30 | 6.84 |  |  | CC(Nc1ccc(F)c(F)c1)c1cc(C(=O)NCCO)cc2ncc(N3CCOCC3)nc12 (stereo not shown) [Compound 279]
4 | 164 °C | 6.80 | 6.37 | 5.29 | 4.95 | < 4.52 | 8.22 | ~6.56 |  |  | CC(Nc1ccc(F)c(F)c1)c1cc(C(=O)NCCCO)cc2ncc(N3CCOCC3)nc12 (stereo not shown) [Compound 280]
5 | 100 °C | 8.22 | 7.17 | 6.08 | 5.74 | 4.63 | 9.70 | 8.15 |  |  | CNCCNC(=O)c1cc(C(C)Nc2cccc(F)c2)c2nc(N3CCOCC3)cnc2c1 (stereo not shown) [Compound 282]
6 | 167 °C | < 6.29 | 6.15 | 5.21 | 4.68 | < 4.52 | 7.89 | < 6.29 |  |  | O=C(NCCO)c1cc(NCc2cccc(F)c2C2CCNCC2)c2nc(N3CCOCC3)cnc2c1 [Compound 317]
7 | 265 °C | 6.83 | 5.13 | 5.28 | 4.76 | < 4.52 | 7.43 | < 6.29 |  |  | O=C(NCCO)c1cc(CNc2cc(F)cc(F)c2)c2nc(N3CCOCC3)cnc2c1 [Compound 333]
8 | 194 °C | 7.34 | 6.06 | 5.71 | 5.04 | 4.96 | 8.40 | 7.07 |  |  | Cc1c(F)cccc1CNc1cc(C(=O)NCCO)cc2ncc(N3CCOCC3)nc12 [Compound 336]
9 | 180 °C | 7.30 | 6.43 | 5.82 | 5.30 | 4.92 | 8.70 | 7.12 |  |  | CNCCNC(=O)c1cc(NCc2cc(F)cc(F)c2)c2nc(N3CCOCC3)cnc2c1 [Compound 340]

Further lines, the molecule ahead of its results:

Row | Structure (SMILES) | melting point | pIC50 ([1]; Homo sapiens, PC-3, 1 h) | pKd (PI3Kδ) | pKd (kinase enzymes [2]) | pKd (kinase enzymes [3]) | pKd (kinase enzymes [4]) | pKd (PI3Kβ) | pIC50 ([5]; Homo sapiens, PC-3, 1 h) | pIC50 [1] | pIC50 [5]
10 | CC(Nc1cc(F)cc(F)c1)c1cc(C(=O)N2CCNC(C(F)(F)F)C2)cc2ncc(N3CCOCC3)nc12 (stereo not shown) [Compound 237] | 80 °C | 7.96 | 6.86 | 6.54 | 5.03 | < 4.52 | 9.00 | 7.70 |  | 
11 | CC(Nc1cc(F)cc(F)c1)c1cc(C(=O)NC2CN(CC(F)(F)F)C2)cc2ncc(N3CCOCC3)nc12 (stereo not shown) [Compound 238] | 110 °C | 6.80 | 5.66 | 5.30 | 4.91 | < 4.52 | 8.10 | 6.66 |  | 
12 | O=Cc1cc(C2CCCN2c2cc(F)cc(F)c2)c2nc(N3CCOCC3)cnc2c1 (stereo not shown) [Compound 250] | 120 °C | 8.22 | 6.66 | 6.47 | 6.02 | 4.84 | 9.00 | 8.30 |  | 
13 | CC(Nc1ccc(F)c(F)c1)c1cc(C(=O)NCCN(C)C)cc2ncc(N3CCOCC3)nc12 (stereo not shown) [Compound 281] | 80 °C | 7.82 | 7.04 | 5.50 | 5.45 | < 4.52 | 9.52 | 7.82 |  | 
14 | CC(Nc1ccc(F)c(F)c1)c1cc(C(=O)N2CCN3CCC[C@H]3C2)cc2ncc(N3CCOCC3)nc12 (stereo partly shown) [Compound 287] | 80 °C | 7.32 | 6.01 | 5.57 | 4.58 | < 4.52 | 7.89 | 6.82 |  | 
15 | CC(Nc1cc(F)c(F)c(F)c1)c1cc(C(=O)NCC(C)(C)O)cc2ncc(N3CCOCC3)nc12 (stereo not shown) [Compound 292] | 80 °C | 6.63 | 5.77 | 5.18 | 4.56 | < 4.52 | 7.80 | 6.36 |  | 
16 | Cc1ccc(NC(C)c2cc(C(=O)NCCO)cc3ncc(N4CCOCC4)nc23)cc1F (stereo not shown) [Compound 295] | 80 °C | < 6.29 | 5.11 | 5.14 | 5.20 | 4.51 | 6.51 | < 6.29 |  | 
17 | CN(C)C(=O)c1cc(C(CO)N(C)c2cccc(F)c2)c2nc(N3CCOCC3)cnc2c1 (stereo not shown) [Compound 301] | 315 °C | 6.37 | 5.49 | 5.27 | 5.82 | 4.82 | 7.37 | < 6.29 |  | 
18 | CC(Nc1ccc(F)c(F)c1)c1cc(C(=O)N2CCC[C@H](O)C2)cc2ncc(N3CCOCC3)nc12 (stereo partly shown) [Compound 302] | 80 °C | 7.12 | 6.42 | 5.71 | 4.81 | < 4.52 | 8.30 | 7.12 |  | 
19 | CC(Nc1ccc(F)c(F)c1)c1cc(CO)cc2ncc(N3CCOCC3)nc12 (stereo not shown) [Compound 303] | 138 °C | 7.10 | 6.34 | 5.45 | 5.41 | 4.73 | 8.05 | 7.06 |  | 
20 | Cc1c(F)cccc1CN(C)c1cc(C(=O)N2CC3(C2)CS(=O)(=O)C3)cc2ncc(N3CCOCC3)nc12 [Compound 308] | 195 °C | < 6.29 | 5.14 | < 4.52 | < 4.52 | < 4.52 | 6.49 | < 6.29 |  | 
21 | CC(Nc1ccc(F)c(F)c1)c1cc(C(=O)N(C)C2CCNC2)cc2ncc(N3CCOCC3)nc12 (stereo not shown) [Compound 322b] | 80 °C |  | 7.17 | 5.66 | 5.21 | < 4.52 | 9.52 |  | 7.59 | 7.38
22 | CC(Nc1ccc(F)c(F)c1)c1cc(C(=O)N(C)C2CCNC2)cc2ncc(N3CCOCC3)nc12 (stereo not shown) [Compound 323b] | 130 °C |  | 6.74 | 5.42 | 5.51 | < 4.52 | 9.00 |  | 7.00 | 6.68
23 | CC(Nc1ccc(F)c(F)c1)c1cc(C(=O)N2CCN3CCC[C@@H]3C2)cc2ncc(N3CCOCC3)nc12 (stereo partly shown) [Compound 347] | 170 °C | 7.20 | 6.39 | 5.43 | 4.54 | < 4.52 | 8.40 |  |  | 6.66

From patent US10526316B2, “Quinoxaline and pyridopyrazine derivatives as PI3Kβ inhibitors” (Janssen Pharmaceutica NV, priority 2015, dated 2020)
